Reference: a melting point compilation (Tetko et al.; mined from patent text by program, amines drawn as free bases though some values may be those of a salt)

| Structure (SMILES) | melting point |
| --- | --- |
| O=C(OC1C2CN(Cc3ccccc3)CC1CN(C(=O)c1ccc([N+](=O)[O-])cc1)C2)c1ccccc1 (centres undefined) | 180 °C |
| Clc1nc2ccccc2c2c1ncn2Cc1ccncc1 | > 300 °C |
| COC(C)=CC(=O)NC1CCCCCCC1 | 116 °C |
| CCCCCCCCCCCCCCN(C(=O)CCCCCCCCCCC)C1(N)OC(CO)C(O)C(O)C1C(=O)C(N)C(=O)C(N)CO (centres undefined) | 141 to 143 °C |
| CCOC(=O)c1[nH]c2c(c1O)CCCC2 | 94 to 95 °C |
| Cc1noc(-c2ccccc2)c1CCC(N)=O | 149 to 151 °C |
| Cc1ccc(-c2nc(C(F)(F)F)nc(NN)c2-c2ccccc2)cc1 | 188 to 191 °C |
| COc1ccc2nc3ccc(OC)cc3c(Nc3cccc(COC(=O)NC(C)C)c3)c2c1 | 148 to 149 °C |
| O=C(Nc1ccc(Cl)c(C(F)(F)F)c1)Nc1ccccc1P(=O)(O)O | 153 to 157 °C |
| CCOC(=O)C1CCCN(c2ccc([N+](=O)[O-])c(C=C3NC(=O)NC3=O)c2)C1 (centres undefined) | 223 to 225 °C |
| O=C(NCCNc1c(Cl)cncc1Cl)C1CCN(c2c(Cl)cncc2Cl)CC1 | 157 to 159 °C |
| CCC(CC)(COc1nn2ncnc2cc1C)CS(N)(=O)=O | 189 to 192 °C |
| CC(=O)c1ccc(OCc2ccccc2)c2ncccc12 | 131 to 133 °C |
| O=[N+]([O-])c1cc(-c2cn3c(n2)sc2ccccc23)cc(O)c1O | 303 to 305 °C |
| Brc1ccc(C2=CCN(CCSCc3c[nH]c4ccccc34)CC2)cc1 | 166 to 167 °C |
| CCC(=O)Nc1nc(CN2CCC(c3c[nH]c4ccccc34)CC2)cs1 | 192 to 195 °C |
| Clc1ccc2[nH]cc(C3=CCN(CCCOc4cccc5[nH]ccc45)CC3)c2c1 | 198 to 202 °C |
| COc1cc(C2=NC(C)(C)C(c3ccncc3)C2)cc(OC)c1OC (centres undefined) | 143 to 144 °C |
| CCCCOc1cc(C(=O)O)cc(S(N)(=O)=O)c1Cc1ccccc1 | 228 to 229 °C |
| COc1ccc(C(=O)C=Cc2c(O)cc(OCCBr)cc2O)cc1O | 158 to 162 °C |
| Cc1cc2cccc(N=C3SC[C@@H]4Cc5ccccc5CN34)c2cn1 | 156 °C |
| Cc1c(C(=O)O)nc2c(=O)[nH]c3cc(C(F)(F)F)ccc3n12 | > 250 °C |
| NS(=O)(=O)c1cc2c(cc1Cl)C(=O)N(CCCN1CCOCC1)C2=O | 190 to 191 °C |
| O=C(NCCN1CCNCC1)c1cccc(C=CC(=O)N2CCc3c([nH]c4ccccc34)C2c2ccc3c(c2)OCO3)c1 (centres undefined) | 138 to 140 °C |
| CCOC(=O)c1ccc(/C=C(\C)c2ccc3c(c2)C(C)(C)CC3(C)C)cc1 | 70 to 71 °C |

| Structure (SMILES) | melting point |
| --- | --- |
| O=C(NCc1ccc(Cl)cc1)c1cc(Br)c2cccnc2c1O | 148 to 151 °C |
| CSc1nc(N)n2nc(-c3ccco3)nc2n1 | 238 to 240 °C |
| O=C(O)c1cc2c(C(F)(F)F)c(F)ccc2[nH]1 | 204 to 210 °C |
| CN(C)c1ccc(NC(=O)NC2CCC2)c(C(=O)NCC2CCN(C(c3ccccc3)c3ccccc3)CC2)c1 | 210 to 212 °C |
| Cc1noc(NS(=O)(=O)c2sccc2Cc2ccccc2)c1Br | 180 to 183 °C |
| COc1ccc(Oc2ccc([N+](=O)[O-])cc2)c(Cl)c1Cl | 165 to 166 °C |
| O=C(c1c(F)cccc1F)N1COCN(c2ccc(SC(F)F)cc2F)C1=O | 77 to 79 °C |
| Cc1cc(-c2cnn3c(C(F)(F)F)cc(-c4ccc(C(F)(F)F)cc4)nc23)ccn1 | 243 °C |
| COc1cc(C2c3cc4c(cc3C(NC(=O)CNCCN(C)C)C3COC(=O)C23)OCO4)cc(OC)c1O (centres undefined) | 230 °C |
| COc1ccc(C(=O)O)nc1OC1CCCC1 | 96 to 99 °C |
| CC1=C(C(=O)O)C(c2ccccc2Cl)C(c2nnco2)=C(C)N1 (centres undefined) | 187 to 190 °C |
| CCCOc1ccc(S(=O)(=O)N2CCN(C(C)=O)CC2)c(-c2nc3cc(N)c(N)cc3c(=O)[nH]2)c1 | 177 to 180 °C |
| COC(=O)c1cc(-c2ccccc2)c(=O)n2c1-c1sc(Br)cc1CC2 | 170 to 171 °C |
| CNc1scc(C)c1C(=O)c1ccccc1Cl | 132 to 134 °C |
| CCN(CC)CCCOc1ccc(C(O)(CC)c2cccc(C(F)(F)F)c2)cc1 (centres undefined) | 44 to 46 °C |
| CC1CCCC(C)N1Cc1ccc2cc(NC(=O)c3ccc(-c4ccc(F)cc4)cc3)ccc2n1 (centres undefined) | 187 to 188 °C |
| CC(C)C(C(=O)O)c1ccc2sccc2c1 (centres undefined) | 150 to 151 °C |
| C=C(C)C(=O)OCCCCCCS(=O)(=O)c1ccc(O)c(C)c1 | 84 to 85 °C |
| CCC(=O)N1N=C(c2ccc(N)c(C)c2)c2cc(Cl)ccc2C=C1C | 218 to 221 °C |
| CCSc1cn(-c2ccccn2)c2c1C(=O)CC(C)(C)C2 | 158 to 159 °C |
| COc1ccc(CCc2ccc(-c3ccc(OC(F)F)cc3)cc2)cc1 | 153 °C |
| N#Cc1cc(-n2cnnc2)cc(C(F)(F)F)c1N | 283 °C |
| O=C(Cl)Cc1ccc(-c2ccc(F)cc2F)c(F)c1 | 70 to 73 °C |
| CCC(C#N)=C1CCN(c2ccc(N3C[C@H](CNC(C)=S)OC3=O)cc2F)CC1 | 174 to 176 °C |
| O=C(Nc1ccc(Oc2cc(Cl)ncn2)cc1)Nc1ccc(Cl)c(C(F)(F)F)c1 | 180 to 181 °C |

| Structure (SMILES) | melting point |
| --- | --- |
| CC(C)(C)OC(=O)N1CCC(c2nc3cc(-c4ccc(C(F)(F)F)cc4)ccc3o2)CC1 | 166 to 169 °C |
| CN1C(=O)CCc2cc(S(=O)(=O)Cl)ccc21 | 130 °C |
| Cc1ccc(S(=O)(=O)Nc2cccc(-c3nnc(-c4ccc(C(=O)O)cc4)o3)c2)cc1 | > 275 °C |
| Cc1c(Br)c2c(c(C)c1NC(=O)OC(C)(C)C)C(N1CCCC1)C(C)(C)O2 (centres undefined) | 128 to 130 °C |
| CCCCNc1cc(-c2c(-c3cccc(C)c3)nc3cccnn23)ccn1 | 128 to 129 °C |
| COc1ccc(OC)c(C(=O)c2oc3ccccc3c2O)c1 | 158 °C |
| Cn1c(-c2ccc(-c3ccccc3)cc2)cnc1[C@H](Cc1ccccn1)N(C=O)c1cc2cc(Br)ccc2o1 | 180 to 182 °C |
| CC(C)(C)c1cc(CP(=O)(O)c2ccccc2)cc(C(C)(C)C)c1O | 185 to 186 °C |
| CCC(C)S(=O)(=O)NN(CCC(=O)O)C(=O)c1ccc2nc(CCC3CCNCC3)[nH]c2c1 (centres undefined) | 180 to 185 °C |
| COC(=O)CCn1cc(-c2cccnc2)c2cc([N+](=O)[O-])ccc21 | 123 to 125 °C |
| O=C(O)CCC(=O)c1ccc(N2CCC3(CC2)OCCO3)cc1 | 130 to 131 °C |
| Cc1ccc(C(=O)N(CCCNC(=O)OC(C)(C)C)C(c2nc3snc(C)c3c(=O)n2Cc2ccccc2)C(C)C)cc1 (centres undefined) | 70 to 71 °C |
| CC(C)c1ccc(S(=O)(=O)NC(=O)C(Oc2cc(OCc3ccsc3)ccc2C#N)c2ccccc2)cc1 (racemic) | 187 to 189 °C |
| O=c1[nH][nH]c(=O)n1-c1c(F)c(F)c(F)c(F)c1F | 180 to 182 °C |
| COc1ccc(C2CC(n3ccnc3)c3ccccc3N2)cc1 (centres undefined) | 156 to 158 °C |
| O=C(C(=O)N1CCCCC1)N1CCCCC1 | 88 to 90 °C |
| O=c1c(Br)cc(Cc2ccccc2)cn1Cc1ccccc1 | 89 to 90 °C |
| CCCSCCNC(=O)n1cc(F)c(=O)[nH]c1=O | 112 to 114 °C |
| CS(=O)(=O)c1ccc(-c2cnn(-c3ccc(F)c(Cl)c3)c(=O)c2Cc2ccc(F)cc2)cc1 | 153 to 156 °C |
| CC(C)(C)C=C[C@H](O)c1ccc(C(F)(F)F)cc1 | 30 to 32 °C |
| CCOC(=O)c1cc(=O)c2cc(C(=O)OCC)c(C(=O)OCC)nc2o1 | 106 °C |
| CCOc1cccc(OCC)c1NC(=O)Cc1c(-c2ccccc2OC)c2cc(Cl)ccc2n1C | 180 to 183 °C |
| CCc1ccc(OCc2cccc(NC(=O)CCC(=O)OC)c2)cc1OC | 69 to 70 °C |
| O=C(O)CCSCC(=O)c1cc2sc(=O)[nH]c2cc1Cl | 195 to 197 °C |
| CC(C)NCC(O)COc1ccc(OCCn2cccn2)cc1 (centres undefined) | 37 to 39 °C |

| Structure (SMILES) | melting point |
| --- | --- |
| COC(=O)c1cc(N)c(F)c(Cl)n1 | 180 to 183 °C |
| Cc1c(-c2ccccc2)sc2nc(NCCNC(=O)CCN3CCN(C)CC3)[nH]c(=O)c12 | 235 to 245 °C |
| Cc1[nH]cnc1/C=C1\CCc2c(c3cccc4c3n2CCC4)C1=O | 260 to 264 °C |
| COc1cc2c(cc1O)CCN(Cc1ccccc1)C2 | 134 to 135 °C |
| CCc1cc(O)cc2c3c([nH]c12)C(CC)(CC(=O)OC)OCC3 (centres undefined) | 153 to 154 °C |
| c1ccc(OCC2CCNCC2)cc1 | 42 to 43 °C |
| O=S(CCCCCl)Cc1ccc(-c2ccccc2)cc1 (centres undefined) | 116 to 117 °C |
| COc1cc(C(C)=O)ccc1OCCCCN1CCC(c2n[nH]c3cc(F)ccc23)CC1 | 158 to 160 °C |
| CSc1n[nH]c(=O)n1C | 97 °C |
| CS(=O)(=O)c1ccc(CC(=O)c2c(O)c3cccnc3n(-c3ccccc3)c2=O)cc1 | 260 to 262 °C |
| COc1cc(OC)c2c(=O)[nH]c(-c3cccc(N4CCN(CCO)CC4)n3)nc2c1 | 175 to 177 °C |
| CCOc1ccc2c(c1)N=C(c1cccc(-c3ccc(C)nc3)c1)CC(=O)N2 | 173 °C |
| COc1cc(OCC(=O)O)c(C)cc1SCc1ccc(-c2ccc(C(F)(F)F)cc2)cc1 | 170 to 171 °C |
| O=C(O)CN1C(=O)C(=Cc2c[nH]c3ccc(Cl)cc23)SC1=S | 278 to 282 °C |
| CC(C)(C)c1cc(-n2nc3ccc(Sc4ccc5nn(-c6cc(C(C)(C)C)cc(C(C)(C)C)c6O)nc5c4)cc3n2)c(O)c(C(C)(C)C)c1 | 245 to 246 °C |
| Cn1c(CO)nc2cc(Br)cnc21 | 142 to 144 °C |
| O=C(NO)c1cc2c(Oc3ccc(Cl)cc3)cncc2s1 | 145 °C |
| NC(=O)c1n[nH]c2c(=O)[nH]c3cc(Cl)ccc3c(=O)c12 | 224 to 225 °C |
| CC(C)Sc1cccc(-c2nc(=O)c3ccccc3s2)n1 | 185 to 186 °C |
| CCS(=O)(=O)Nc1cc(-c2ncnc(OC)c2C#N)c(F)cc1C#N | 187 to 189 °C |
| CNC1=CC(=O)C(Nc2ncnc3cc(OC)c(OC)cc23)=CC1=O | 283 to 285 °C |
| COc1ccc(-c2c(C(=O)CC(C)C)c(CBr)nc3cc(OC)c(OC)cc23)cc1OC | 159 to 161 °C |
| O=C(OO)c1ccc([N+](=O)[O-])cc1 | 251 to 252 °C |
| OC1(c2ccc(Br)cc2)CCC2(CC1)OCCO2 | 156 to 158 °C |
